Measurements taken from patent publication US12599613B2, “Composition comprising dutasteride” (Chong Kun Dang Pharmaceutical Corp., priority 2018, dated 2026).

Assay: Dissolution rate of pharmaceutical composition in vitro (Korean Pharmacopoeia Method I, basket)
Assay type: physicochemical
Conditions: 56 mg dutasteride, 900 mL 1% w/v sodium dodecyl sulfate, 37° C., 100 rpm
Protocol: A dissolution rate of the inventive compositions in vitro was identified through the following experiment. Example 32 was filled into a disposable syringe in such an amount that corresponds to 56 mg of dutasteride and then injected into a dissolution medium, and Comparative Example 1 was directly put into a rotating basket in such an amount that corresponds to 56 mg of dutasteride. This experiment was performed according to the dissolution test method I in the 10th revision of the Korean Pharmacopocia and the conditions for dissolution are as follows.
<Conditions for Dissolution of Pharmaceutical Composition>
• Dissolution method: Method I of the Korean Pharmacopoeia (Appratus I—Basket) • Dissolution medium: 900 mL of solution containing 1% w/v sodium dodecyl sulfate • Dissolution temperature: 37±0.5° C. • Rotation speed: 100 rpm • Test hour: 1, 3, 6, 12 and 24 hours
With regard to a concentration of dutasteride in a dissolution sample, a dissolution rate for 24 hours was analyzed with HPLC under the condition of Experimental Example 1 and the results thereof were shown in FIG. 2.

SMILES: C[C@]12C=CC(=O)N[C@@H]1CC[C@@H]1[C@@H]2CC[C@]2(C)[C@@H](C(=O)Nc3cc(C(F)(F)F)ccc3C(F)(F)F)CC[C@@H]12 [Comparative Example 1, dutasteride]
- state of dutasteride in the dissolution medium (dissolved / precipitated): a part of the drug only was dissolved into the dissolution medium
- dissolution rate with an elapse of time (24 hours): hardly increased with an elapse of time from one hour after
